Earlier results on one sequence are cited in patent EP0918795B1, “ANTIANGIOGENIC DRUG TO TREAT CANCER, ARTHRITIS AND RETINOPATHY” (Abbott Laboratories, priority 1997, dated 2004).

Data set [1] has as its system cultured endothelial cells. Conditions: inhibition of the migration of cultured endothelial cells.

No end group written: not given here.

As to “SPWSSASVTAGDGVITRIR [MalII, 19-mer synthetic peptide mimicking properdin-like repeat region 1 of TSP1]”, the ED50 entry in data set [1] is on record as “about 1 µM”. In addition, the “neovascularization in vivo in the rat cornea” value in the data set on rat cornea is “blocked neovascularization”.
